Data set [1] addresses T1, Melanocortin receptor 4 (Homo sapiens, UniProt P32245). The data set can be described thus: Effective concentration (binding affinity) exhibited against human melanocortin receptor 4 by radio labeled ligand assay (Displacement of [125I]NDP-alpha-MSH from the human receptors expressed in CHO cells). It is filed as functional, cell-based.
The target in data set [2] is T2, Melanocortin receptor 3 (Homo sapiens, UniProt P41968). Description: Percentage of cAMP accumulation at 10 uM compound relative to alpha-MSH for melanocortin receptor 3. The format is functional.
Data set [3] has as its target T2, Melanocortin receptor 3. Description: Inhibition concentration (binding affinity) against human melanocortin receptor 3 by displacement of [125I]NDP-alpha-MSH from the human receptors expressed in CHO cells. The format is cell-based.
Data set [4] deals with T3, Melanocortin receptor 5 (Homo sapiens, UniProt P33032). Description: Inhibition concentration (binding affinity) exhibited against human melanocortin receptor 5 by radio labeled ligand assay (Displacement of [125I]NDP-alpha-MSH from the human receptors expressed in CHO cells). It is filed as functional, cell-based.
In data set [5] the target is T3, Melanocortin receptor 5. Description: Inhibition concentration (binding affinity) against human melanocortin receptor 5 by displacement of [125I]NDP-alpha-MSH from the human receptors expressed in CHO cells. The format is cell-based.
The target in data set [6] is T3, Melanocortin receptor 5. The settings on record: 10 uM.
For data set [7], the target named is T1, Melanocortin receptor 4. Description: Inhibition concentration (binding affinity) against human melanocortin receptor 4 by displacement of [125I]NDP-alpha-MSH from the human receptors expressed in CHO cells. The format is cell-based.
Data set [8] concerns the target T1, Melanocortin receptor 4. Description: Inhibition concentration (binding affinity) exhibited against human melanocortin receptor 4 by radio labeled ligand assay (Displacement of [125I]NDP-alpha-MSH from the human receptors expressed in CHO cells). The format is functional, cell-based.
The nature of data set [9]: Cmax value in beagles as a solution in water at 0.5 mg/kg, iv and 2.0 mg/kg, po. The format is ADME, organism-based, Canis lupus familiaris. The settings on record: beagle, dog, in vivo.
The nature of data set [10]: Clearance in Sprague Dawley rats as a solution in water at 1 mg/kg, iv and 20 mg/kg, po. It is filed as ADME, organism-based. The settings on record: rat, in vivo.
Data set [11] is described as follows: […] in rhesus as a solution in water at 0.5 mg/kg, iv and 2 mg/kg po. It is filed as organism-based. The settings on record: cercopithecidae, in vivo.
A short description of data set [12]: Clearance in rhesus as a solution in water at 0.5 mg/kg, iv and 2 mg/kg po. It is filed as ADME, organism-based. The settings on record: cercopithecidae, in vivo.
A short description of data set [13]: Half life in Sprague Dawley rats as a solution in water at 1 mg/kg, iv and 20 mg/kg, po. It is filed as ADME, organism-based. The settings on record: rat, in vivo.
The target in data set [14] is T4, Adrenocorticotropic hormone receptor (Homo sapiens, UniProt Q01718). Description: Inhibition concentration (binding affinity) against human melanocortin receptor 2 by displacement of [125I]NDP-alpha-MSH from the human receptors expressed in CHO cells. It is filed as cell-based.
Data set [15] can be described thus: Cmax value in rhesus as a solution in water at 0.5 mg/kg, iv and 2 mg/kg po. It is filed as ADME, organism-based. As to conditions: cercopithecidae, in vivo.
For data set [16], the target named is T1, Melanocortin receptor 4. Description: Concentration of compound at 50% maximum cAMP accumulation in human melanocortin receptor (hMC4R). The format is functional.
Data set [17] is described as follows: […] in Sprague Dawley rats as a solution in water at 1 mg/kg, iv and 20 mg/kg, po. It is filed as organism-based. As to conditions: rat, in vivo.
The target in data set [18] is T5, Melanocortin receptor 4 (Rattus norvegicus, UniProt P70596). The data set can be described thus: Concentration of compound at 50% maximum cAMP accumulation in rat melanocortin receptor (rMC4R). The format is functional.
Data set [19] concerns the target Melanocyte-stimulating hormone receptor (Homo sapiens, UniProt Q01726). The data set can be described thus: Inhibition concentration (binding affinity) against human melanocortin receptor 1 by displacement of [125I]NDP-alpha-MSH from the human receptors expressed in CHO cells. The format is cell-based.
A short description of data set [20]: Half life in beagles as a solution in water at 0.5 mg/kg, iv and 2.0 mg/kg, po. The format is ADME, organism-based, Canis lupus familiaris. As to conditions: beagle, dog, in vivo.
The target in data set [21] is T2, Melanocortin receptor 3. The data set can be described thus: Percentage of cAMP accumulation at 10 uM compound relative to alpha-MSH in hMC3R. The format is functional.
Data set [22] addresses T5, Melanocortin receptor 4. The data set can be described thus: Inhibition concentration (binding affinity) against rat melanocortin receptor 4 by displacement of [125I]NDP-alpha-MSH from the human receptors expressed in CHO cells. It is filed as cell-based.
Data set [23] concerns the target T3, Melanocortin receptor 5. The data set can be described thus: Concentration of compound at 50% maximum cAMP accumulation in human melanocortin receptor (hMC5R). The format is functional.
Data set [24] in a line: Volume of distribution in beagles as a solution in water at 0.5 mg/kg, iv and 2.0 mg/kg, po. It is filed as ADME, organism-based, Canis lupus familiaris. The settings on record: beagle, dog, in vivo, read-out: Vdss.
The nature of data set [25]: Bioavailability in beagles as a solution in water at 0.5 mg/kg, iv and 2.0 mg/kg, po. The format is ADME, organism-based, Canis lupus familiaris. The settings on record: beagle, dog, in vivo.
A short description of data set [26]: Half life in rhesus as a solution in water at 0.5 mg/kg, iv and 2 mg/kg po. It is filed as ADME, organism-based. As to conditions: cercopithecidae, in vivo.
Data set [27] can be described thus: Volume of distribution in Sprague Dawley rats as a solution in water at 1 mg/kg, iv and 20 mg/kg, po. The format is ADME, organism-based. The settings on record: rat, in vivo, read-out: Vdss.
A short description of data set [28]: Bioavailability in Sprague Dawley rats as a solution in water at 1 mg/kg, iv and 20 mg/kg, po. The format is ADME, organism-based. The settings on record: rat, in vivo.
Data set [29] can be described thus: Volume of distribution in rhesus as a solution in water at 0.5 mg/kg, iv and 2 mg/kg po. The format is ADME, organism-based. The settings on record: cercopithecidae, in vivo, read-out: Vdss.
The nature of data set [30]: Bioavailability in rhesus as a solution in water at 0.5 mg/kg, iv and 2 mg/kg po. It is filed as ADME, organism-based, Macaca mulatta. As to conditions: rhesus monkey, in vivo.
Data set [31] can be described thus: Cmax value in Sprague Dawley rats as a solution in water at 1 mg/kg, iv and 20 mg/kg, po. It is filed as ADME, organism-based. As to conditions: rat, in vivo.
In data set [32] the target is T4, Adrenocorticotropic hormone receptor. As to conditions: 10 uM.
A short description of data set [33]: Clearance in beagles as a solution in water at 0.5 mg/kg, iv and 2.0 mg/kg, po. The settings on record: beagle, dog, in vivo. It is filed as ADME, organism-based, Canis lupus familiaris.
Data set [34] deals with T6, Melanocortin receptor 4 (Mus musculus, UniProt P56450). Description: Concentration of compound at 50% maximum cAMP accumulation in mouse melanocortin receptor (mMC4R). It is filed as functional.
The nature of data set [35]: […] in beagles as a solution in water at 0.5 mg/kg, iv and 2.0 mg/kg, po. The format is organism-based, Canis lupus familiaris. As to conditions: beagle, dog, in vivo.
The target in data set [36] is T6, Melanocortin receptor 4. Description: Inhibition concentration (binding affinity) against mouse melanocortin receptor 4 by displacement of [125I]NDP-alpha-MSH from the human receptors expressed in CHO cells. It is filed as cell-based.

The text below walks through data of ChEMBL document CHEMBL1140367, “Discovery and activity of (1R,4S,6R)-N-[(1R)-2-[4-cyclohexyl-4-[[(1,1-dimethylethyl)amino]carbonyl]-1-piperidinyl]-1-[(4-fluorophenyl)methyl]-2-oxoethyl]-2-methyl-2-azabicyclo[2.2.2]octane-6-carboxamide (3, RY764), a potent and selective melanocortin subtype-4 receptor agonist” (Bioorg Med Chem Lett, 2005).

T2 sequence (P41968 whole entry): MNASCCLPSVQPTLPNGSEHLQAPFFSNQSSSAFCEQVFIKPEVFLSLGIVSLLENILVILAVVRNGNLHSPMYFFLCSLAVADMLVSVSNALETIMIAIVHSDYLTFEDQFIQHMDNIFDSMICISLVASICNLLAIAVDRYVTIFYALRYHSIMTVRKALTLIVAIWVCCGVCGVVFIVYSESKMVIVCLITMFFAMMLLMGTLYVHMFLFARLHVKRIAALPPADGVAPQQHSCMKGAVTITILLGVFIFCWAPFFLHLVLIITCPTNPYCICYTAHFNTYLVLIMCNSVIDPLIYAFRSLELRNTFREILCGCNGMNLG
T3 sequence (P33032 whole entry): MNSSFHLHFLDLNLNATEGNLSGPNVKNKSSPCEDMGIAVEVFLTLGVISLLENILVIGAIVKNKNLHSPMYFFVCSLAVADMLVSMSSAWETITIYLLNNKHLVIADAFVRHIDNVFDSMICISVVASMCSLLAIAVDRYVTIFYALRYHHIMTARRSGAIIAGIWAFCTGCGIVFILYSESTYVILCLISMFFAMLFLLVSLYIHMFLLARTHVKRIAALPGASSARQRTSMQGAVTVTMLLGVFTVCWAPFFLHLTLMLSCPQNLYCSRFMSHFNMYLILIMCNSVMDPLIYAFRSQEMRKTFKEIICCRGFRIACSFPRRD
T1 sequence (P32245 whole entry): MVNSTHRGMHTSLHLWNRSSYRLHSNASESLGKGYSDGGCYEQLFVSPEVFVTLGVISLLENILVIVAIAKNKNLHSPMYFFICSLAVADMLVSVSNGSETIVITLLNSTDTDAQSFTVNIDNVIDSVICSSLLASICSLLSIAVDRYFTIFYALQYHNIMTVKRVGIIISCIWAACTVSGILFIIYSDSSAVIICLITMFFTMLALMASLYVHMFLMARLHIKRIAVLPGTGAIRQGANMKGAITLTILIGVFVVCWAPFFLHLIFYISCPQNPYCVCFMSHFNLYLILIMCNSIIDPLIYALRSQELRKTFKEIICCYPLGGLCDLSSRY
T5 sequence (P70596 whole entry): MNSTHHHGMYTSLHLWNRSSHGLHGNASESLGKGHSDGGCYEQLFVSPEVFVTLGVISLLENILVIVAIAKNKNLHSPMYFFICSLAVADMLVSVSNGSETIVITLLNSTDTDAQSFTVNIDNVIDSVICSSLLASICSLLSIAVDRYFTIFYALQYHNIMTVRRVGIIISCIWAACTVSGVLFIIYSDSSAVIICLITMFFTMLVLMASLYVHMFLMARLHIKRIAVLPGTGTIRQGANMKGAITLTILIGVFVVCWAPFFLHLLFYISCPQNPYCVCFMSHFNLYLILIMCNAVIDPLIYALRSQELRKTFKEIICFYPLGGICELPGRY
T4 sequence (Q01718 whole entry): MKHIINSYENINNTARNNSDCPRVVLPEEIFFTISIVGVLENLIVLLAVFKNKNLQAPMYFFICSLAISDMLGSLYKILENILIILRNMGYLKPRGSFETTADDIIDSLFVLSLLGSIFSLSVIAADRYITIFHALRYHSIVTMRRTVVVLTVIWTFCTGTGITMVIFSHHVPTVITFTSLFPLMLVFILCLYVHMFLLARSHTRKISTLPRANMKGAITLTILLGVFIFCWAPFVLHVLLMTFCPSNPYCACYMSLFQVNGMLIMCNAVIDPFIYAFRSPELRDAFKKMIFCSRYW
T6 sequence (P56450 whole entry): as the sequence (P70596 whole entry) above, with H21Y, S36P, T199S, A239T, P329S, G330S counted along it
Melanocyte-stimulating hormone receptor, sequence (Q01726 whole entry): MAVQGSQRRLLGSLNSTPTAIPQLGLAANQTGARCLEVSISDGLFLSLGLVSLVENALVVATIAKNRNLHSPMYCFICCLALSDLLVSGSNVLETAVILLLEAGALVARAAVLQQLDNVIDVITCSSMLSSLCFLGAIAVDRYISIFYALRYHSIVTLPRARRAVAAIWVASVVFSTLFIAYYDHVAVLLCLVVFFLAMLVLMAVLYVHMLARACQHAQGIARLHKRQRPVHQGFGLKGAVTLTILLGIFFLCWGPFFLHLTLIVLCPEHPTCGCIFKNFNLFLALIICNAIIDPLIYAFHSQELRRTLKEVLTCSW

As for `CN1C[C@H]2CC[C@@H]1[C@@H](C(=O)N[C@H](Cc1ccc(F)cc1)C(=O)N1CCC(C(=O)NC(C)(C)C)(C3CCCCC3)CC1)C2`, the EC50 on Melanocortin receptor 4 [1] was 165 nM; on Melanocortin receptor 5 [4] it was 850 nM. For the same molecule, the Max is 5% on Melanocortin receptor 3 [2] and 14% on Melanocortin receptor 5 [6]. The values for the half-maximal inhibitory concentration (IC50) at Melanocortin receptor 3 [3], at Melanocortin receptor 5 [5] and at Melanocortin receptor 4 [7] were 1350 nM, 6460 nM and 28 nM, respectively.
As to `CC(C)(C)NC(=O)C1(C2CCCCC2)CCN(C(=O)[C@@H](Cc2ccc(F)cc2)NC(=O)[C@H]2C[C@@H]3CC[C@@H]2NC3)CC1`, a half-maximal response at Melanocortin receptor 4 [8] (EC50) required 52 nM. The molecule further gave a pMax on Melanocortin receptor 3 [2] of 3%. In addition, the IC50 at Melanocortin receptor 3 [3] is 620 nM; on Melanocortin receptor 5 [5], 1020 nM; on Melanocortin receptor 4 [7] it was 14 nM. This molecule also came in with a Max at Melanocortin receptor 5 [6] of 3%.
For `CN1C[C@H]2CC[C@@H]1[C@H](C(=O)N[C@H](Cc1ccc(F)cc1)C(=O)N1CCC(C(=O)NC(C)(C)C)(C3CCCCC3)CC1)C2`, the results for the peak concentration (Cmax) in data set [9], in [15] and in [31] were 910 nM, 850 nM and 870 nM, respectively. Besides, the clearance was determined as 46.9 mL/min/kg in data set [10], 3.4 mL/min/kg in [12] and 6.6 mL/min/kg in data set [33]. The Max at Melanocortin receptor 3 [2] is 8%; at Melanocortin receptor 5 [6], 33%. Besides, the Tmax in [11] amounted to 1.3 h; in [17], 3 h; in [35] it was 1.1 h. The half-life in data set [13] is 3.2 h; in data set [20], 4.9 h; in data set [26], 4.6 h. In addition, the IC50 was greater than 10000 nM in data set [14], 750 nM in data set [19], 3000 nM on Melanocortin receptor 4 [22] and 3000 nM at Melanocortin receptor 4 [36]. The EC50 at Melanocortin receptor 4 [16] was determined as 11000 nM; at Melanocortin receptor 4 [18], 5000 nM; on Melanocortin receptor 5 [23] it was 850 nM; on Melanocortin receptor 4 [34] it was 6000 nM. The Activation was 8% at Melanocortin receptor 3 [21] and 2% in data set [32]. Besides, the Vd in data set [24] was 2.3 L/kg; in [27], 9.6 L/kg; in data set [29] it was 0.8 L/kg. In addition, the bioavailability in [25] was 50%; in data set [28] it was 32%; in data set [30], 16%.
For the molecule `CC(C)(C)NC(=O)C1(C2CCCCC2)CCN(C(=O)[C@@H](Cc2ccc(F)cc2)NC(=O)[C@H]2C[C@H]3CC[C@@H]2NC3)CC1`, the figures for the concentration giving a half-maximal response (EC50) at Melanocortin receptor 4 [8] and on Melanocortin receptor 5 [4] were 238 nM and 1980 nM, respectively. The values for the Max at Melanocortin receptor 3 [2] and at Melanocortin receptor 5 [6] were 10% and 26%, respectively. For the same molecule, the IC50 at Melanocortin receptor 3 [3] worked out at 2060 nM; at Melanocortin receptor 5 [5] it was 9870 nM; on Melanocortin receptor 4 [7], 41 nM.
Consider `CN1C[C@@H]2CC[C@H]1[C@@H](C(=O)N[C@H](Cc1ccc(F)cc1)C(=O)N1CCC(C(=O)NC(C)(C)C)(C3CCCCC3)CC1)C2`, for which, on Melanocortin receptor 4 [8], a half-maximal response (EC50) required 34 nM. In addition, the Max at Melanocortin receptor 3 [2] came to 4%; on Melanocortin receptor 5 [6], 5%. The results for the 50% inhibitory concentration (IC50) at Melanocortin receptor 3 [3], at Melanocortin receptor 5 [5] and on Melanocortin receptor 4 [7] were 410 nM, 1080 nM and 6 nM, respectively.
Turning to `CC(C)(C)NC(=O)C1(C2CCCCC2)CCN(C(=O)[C@@H](Cc2ccc(F)cc2)NC(=O)C2CC3CCC2NC3)CC1` (single isomer, unassigned), a half-maximal effect at Melanocortin receptor 4 [8] (EC50) was put at 20 nM. In addition, the Max at Melanocortin receptor 3 [2] stood at 4%; on Melanocortin receptor 5 [6], 11%. In addition, the results for the IC50 at Melanocortin receptor 3 [3], on Melanocortin receptor 5 [5] and at Melanocortin receptor 4 [7] were 620 nM, 940 nM and 16 nM, respectively.
